Experimental data published in US11179382B2, “Methods of reversing normal aging process and extending lifespan” (MyMD Pharmaceuticals (Florida), Inc., priority 2015, dated 2021).
“And” between values parts separate entries of the source, which are not always exact repeats. Identical values can stand only once. “Also recorded” adds a separate entry of the source.

Assays:
MAO-A = target: T1, MAO-A (Homo sapiens, UniProt P21397); test: MAO-Glo luminescent assay, MAO-A inhibition; format: biochemical; conditions: compared among isomyosmine, myosmine, anatabine, anabasine, nornicotine; clorgyline positive control
T1 construct: purchased
T1 sequence (P21397 1-527): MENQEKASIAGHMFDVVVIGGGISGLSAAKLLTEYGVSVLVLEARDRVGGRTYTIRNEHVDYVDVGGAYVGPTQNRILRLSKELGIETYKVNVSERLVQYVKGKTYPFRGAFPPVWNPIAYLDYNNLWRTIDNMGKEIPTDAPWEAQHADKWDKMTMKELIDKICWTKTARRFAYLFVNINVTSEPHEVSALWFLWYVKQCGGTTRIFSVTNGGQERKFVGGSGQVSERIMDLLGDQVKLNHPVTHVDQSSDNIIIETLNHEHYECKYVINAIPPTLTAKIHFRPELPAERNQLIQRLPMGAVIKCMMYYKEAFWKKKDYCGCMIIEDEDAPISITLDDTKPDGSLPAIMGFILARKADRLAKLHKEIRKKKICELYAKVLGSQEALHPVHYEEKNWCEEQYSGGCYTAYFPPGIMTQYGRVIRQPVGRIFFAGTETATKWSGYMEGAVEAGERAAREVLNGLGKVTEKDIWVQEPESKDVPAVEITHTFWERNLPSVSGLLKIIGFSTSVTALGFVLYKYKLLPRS
Description: (§1) This example describes experiments for determining monoamine oxidase (MAO) inhibition for isomyosmine and other alkaloids. MAOs are enzymes located on the outer membrane of mitochondria and are involved in the catabolism of monoamine neurotransmitters. There are two well-characterized isoenzymes: MAO-A, which predominantly catabolizes serotonin and norepinephrine, and MAO-B, which preferentially catabolizes benzylamine and phenylethylamine. Dopamine and tyramine are metabolized by both isoforms.
(§2) To detect the activity of MAO, a luminescent method (MAO-Glo Assay kit, from Promega, Cat #V1401) was used. In this method, a MAO substrate (a derivative of beetle luciferin provided in the kit) is mixed with the compound to be tested (in this case, myosmine and control compounds). Then, the MAO enzymes (either A or B, purchased separately) are added to the mixture and incubated with the reaction for 1 hour at room temperature. The MAO enzymes, if not inhibited by the test compound, will convert the substrate into methyl ester luciferin. Finally, a luciferin detection reagent (provided by the kit) is added (20 minutes at room temperature) to stop the MAO reaction and convert methyl ester luciferin into D-luciferin. […] The luminescent signal is measured and recorded using a luminometer. […]

MAO-B = target: T2, MAO-B (Homo sapiens, UniProt P27338); test: MAO-Glo luminescent assay, MAO-B inhibition; format: biochemical; conditions: compared among isomyosmine, myosmine, anatabine, anabasine, nornicotine
T2 construct: purchased
T2 sequence (P27338 1-520): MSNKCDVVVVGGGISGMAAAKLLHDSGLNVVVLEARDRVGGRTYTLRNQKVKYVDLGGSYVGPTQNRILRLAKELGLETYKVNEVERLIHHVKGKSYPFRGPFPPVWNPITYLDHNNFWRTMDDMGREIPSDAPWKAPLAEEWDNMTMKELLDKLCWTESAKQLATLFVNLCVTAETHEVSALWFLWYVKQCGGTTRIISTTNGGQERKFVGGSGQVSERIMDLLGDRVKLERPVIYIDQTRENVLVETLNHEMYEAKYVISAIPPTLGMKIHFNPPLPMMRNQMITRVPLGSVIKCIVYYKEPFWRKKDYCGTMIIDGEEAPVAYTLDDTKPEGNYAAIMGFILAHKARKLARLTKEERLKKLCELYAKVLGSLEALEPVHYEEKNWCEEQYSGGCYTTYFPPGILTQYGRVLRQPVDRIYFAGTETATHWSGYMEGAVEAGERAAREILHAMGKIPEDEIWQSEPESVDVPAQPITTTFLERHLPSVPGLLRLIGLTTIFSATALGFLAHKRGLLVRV
Description: as §1, §2

[1] = tested on: stage-four cancer patient diagnosed with autoimmune amyloidosis; test: Treatment of a stage-four cancer patient with autoimmune amyloidosis; immunoglobulin light chain Kappa/Lambda detection in blood; format: in vivo, human; conditions: for Lambda Light Chains / Free Light Chains Ratio / Kappa Light Chains: 250 mg daily; for Lambda Light Chains: initial 6.5, standard range 5.7-26.3; for Free Light Chains Ratio: initial 75.38, standard range 0.26-1.65; for Kappa Light Chains: initial 490.0, standard range 3.3-19.4
Protocol: This example illustrates treating a stage-four cancer patient who had been diagnosed with autoimmune amyloidosis. At the time treatment began, the individual was bedridden under hospice care and told they had only a few days to live. The individual was administered a daily dose of 250 mg isomyosmine.
The patient's blood was tested using conventional immunoglobulin light chain Kappa/Lambda detection. The immunoglobulin kappa and lambda (Ig κ/λ) in situ hybridization (ISH) system is designed for the detection of human kappa and lambda immunoglobulin light chain messenger RNA (mRNA) in tissue sections and blood and bone marrow smears. The system uses biotin-labeled oligonucleotide probes. The probe-mRNA duplex is indirectly detected using an enzyme-conjugated antibody targeting the biotin conjugate. For color development, a chromogenic substrate is added. Enzymatic reaction of the chromogenic substrate leads to the formation of a color precipitate that is visualized by light microscopy.

[2] = tested on: herpes labialis (herpes simplex); test: Treatment of herpes labialis (cold sores) in an individual; format: in vivo, human; conditions: 100 mg dose upon first feeling the onset of a cold sore
Protocol: This example illustrates administering isomyosmine to treat herpes labialis (cold sores), a type of herpes simplex occurring on the lip. An individual who experiences periodic outbreaks of herpes labialis was administered a 100 mg dose of isomyosmine upon first feeling the onset of a cold sore.

[3] = tested on: individuals experiencing high blood pressure; test: Treatment of individuals experiencing high blood pressure; format: in vivo, human; conditions: 100 mg per day
Protocol: (§3) This example illustrates administering isomyosmine to treat high blood pressure. Twelve individuals experiencing high blood pressure were each administered isomyosmine at dose of 100 mg per day. […] The blood pressure of one of the individuals was measured to be 145/86 mmHg without isomyosmine in the bloodstream and was measured to be 109/59 mmHg while being treated with isomyosmine. Another of the individuals was being treated for type II diabetes at the beginning of the treatment.

[4] = tested on: individual being treated for type II diabetes; test: Individual with type II diabetes treated with isomyosmine; format: in vivo, human; conditions: one individual, 100 mg per day, following three months of treatment; taken off existing diabetes medication
Protocol: as §3

[5] = tested on: individuals (peripheral capillary oxygen saturation); test: Blood oxygen saturation (SpO2) by pulse oximetry in individuals; format: in vivo, human; conditions: one hour after a single dose (50-100 mg), seven individuals
Description: This example illustrates the effect of isomyosmine on normal blood oxygen saturation levels (SpO2). SpO2 refers to peripheral capillary oxygen saturation, an estimate of the amount of oxygen in the blood. More specifically, it is the percentage of oxygenated hemoglobin (hemoglobin containing oxygen) compared to the total amount of hemoglobin in the blood (oxygenated and non-oxygenated hemoglobin). SpO2 can be measured by pulse oximetry, an indirect, non-invasive method. It works by emitting and then absorbing a light wave passing through blood vessels (or capillaries) in the fingertip. A variation of the light wave passing through the finger will give the value of the SpO2 measurement because the degree of oxygen saturation causes variations in the blood's color.

surgical incisions = test: Topical administration for wound healing; format: in vivo, human; conditions: e.g., avoid scarring around surgical incisions
Description: In another aspect, a method of treating a wound comprises administering to an individual in need thereof a pharmaceutical composition containing a therapeutically effective amount of isomyosmine or a pharmaceutically acceptable salt thereof.

C1=NC(c2cccnc2)CC1 (stereo not shown) [isomyosmine, 3-(3,4-dihydro-2H-pyrrol-2-yl)-pyridine]
inhibiting the enzymatic activity of MAO-A (result in words, FIG. 3) (MAO-A): most potent of the five; also recorded: potent inhibitor
inhibiting the activity of MAO-B (result in words, FIG. 4) (MAO-B): most potent among the five alkaloids tested; also recorded: potent inhibitor
Lambda Light Chains ([1]; 3 weeks): 10.9 mg/L
Free Light Chains Ratio ([1]; 3 weeks): 55.23
Kappa Light Chains ([1]; 3 weeks): 602.0 mg/L
Lambda Light Chains ([1]; 9 weeks): 9.2 mg/L
Free Light Chains Ratio ([1]; 9 weeks): 42.83
Kappa Light Chains ([1]; 9 weeks): 394.0 mg/L
Lambda Light Chains ([1]; 12 weeks): 7.1 mg/L
Free Light Chains Ratio ([1]; 12 weeks): 29.58
Kappa Light Chains ([1]; 12 weeks): 210.0 mg/L
Lambda Light Chains ([1]; 14 weeks): 3.0 mg/L
Free Light Chains Ratio ([1]; 14 weeks): 64.33
Kappa Light Chains ([1]; 14 weeks): 193.0 mg/L
Lambda Light Chains ([1]; 17 weeks): 3.6 mg/L
Free Light Chains Ratio ([1]; 17 weeks): 28.89
Kappa Light Chains ([1]; 17 weeks): 104.0 mg/L
individual's symptoms ([1]; daily dose of 250 mg, within two weeks of treatment, able to get out of bed and walk around): remarkably improved
outbreak of cold sore [2]: effective to prevent the outbreak of the cold sore
blood pressure while being treated ([3]; one individual, 145/86 mmHg without isomyosmine in the bloodstream): 109/59
change in blood pressure during treatment ([3]; twelve individuals): reduction in blood pressure
symptoms of diabetes [4]: no symptoms of diabetes
blood oxygenation (result in words) [5]: significant increase in blood oxygenation
Dosed SpO2 ([5]; base SpO2 94.0-97.0): 98.0 (5×) and 99.0 (2×)
wound healing (result in words) (surgical incisions): dramatically improve healing
